Results from patent US8673914B2, “Use of phosphodiesterase inhibitors for treating multidrug resistance” (St. John's University, priority 2011, dated 2014).

Assay: MTT cytotoxicity assay (Example 4)
Format: cell-based
Details: human; HEK/MRP7; alone; read-out: IC50 of paclitaxel
Protocol: The MRP7 cDNA was generously provided by Dr. Gary Kruh (University of Illinois, Chicago, Ill.) and inserted into the pcDNA3.1 expression vector. […] Individual colonies were selected in medium containing G418 (1 mg/ml) and cultured for further analysis.
MTT colorimetric assay was performed to analyze the drug sensitivity as previously described (Shi et al. (2007) Cancer Res. 67:11012-20). HEK293-pcDNA3.1 and HEK/MRP7 cells were seeded into 96-well plates in triplicate at 6000 cells/well.
After drug incubation of 68 h, 20 μl MTT solution (4 mg/ml) was added into each well. […] The Bliss method was used to calculate the IC50 values according to survival curves.

**Q.** With `CC(=O)O[C@H]1C(=O)[C@@]2(C)[C@H]([C@H](OC(=O)c3ccccc3)[C@]3(O)C[C@H](OC(=O)[C@H](O)[C@@H](NC(=O)c4ccccc4)c4ccccc4)C(C)=C1C3(C)C)[C@]1(OC(C)=O)CO[C@@H]1C[C@@H]2O` [Paclitaxel, paclitaxel] as the molecule, how does the IC50 at 68 h read?
**A.** Its IC50 at 68 h is 0.107 ± 0.0112 µM.
